ChEMBL document CHEMBL4196079, “Molecular interaction of novel benzothiazolyl triazolium analogues with calf thymus DNA and HSA-their biological investigation as potent antimicrobial agents” (Eur J Med Chem, 2018)
≈ marks a conversion by molar mass, not a printed value.

Each compound was assayed on Staphylococcus aureus (assay: Antibacterial activity against methicillin-resistant Staphylococcus aureus N315 after 24 hrs by NCCLS micro broth dilution method). Details: N315, 24 h.
Type: functional
For `CCCCCn1cc(COCc2c(-c3ccccc3)nc3sc4cc(OCC)ccc4n23)nn1`, the MIC was 32 µg/mL (≈ 67.3 µM).
`CCOc1ccc2c(c1)sc1nc(-c3ccccc3)c(COCc3cn(Cc4ccc(Cl)c(Cl)c4)nn3)n12` showed an MIC of 16 µg/mL (≈ 28.3 µM).

The compounds below were run on Staphylococcus aureus (assay: Antibacterial activity against Staphylococcus aureus ATCC 25923 after 24 hrs by NCCLS micro broth dilution method). Details: ATCC 25923, 24 h.
Type: functional
`CCCCCn1cc(COCc2c(-c3ccccc3)nc3sc4cc(OCC)ccc4n23)nn1` showed an MIC of 128 µg/mL (≈ 269 µM).
`CCOc1ccc2c(c1)sc1nc(-c3ccccc3)c(COCc3cn(Cc4ccc(Cl)c(Cl)c4)nn3)n12` showed an MIC of 16 µg/mL (≈ 28.3 µM).

These compounds were tested on Bacillus subtilis (assay: Antibacterial activity against Bacillus subtilis ATCC 21216 after 24 hrs by NCCLS micro broth dilution method). Details: ATCC 21216, 24 h.
Type: functional
For `CCCCCn1cc(COCc2c(-c3ccccc3)nc3sc4cc(OCC)ccc4n23)nn1`, the MIC was 64 µg/mL (≈ 135 µM).
`CCOc1ccc2c(c1)sc1nc(-c3ccccc3)c(COCc3cn(Cc4ccc(Cl)c(Cl)c4)nn3)n12` gave an MIC of 4 µg/mL (≈ 7.09 µM).

These compounds were tested on Micrococcus luteus (assay: Antibacterial activity against Micrococcus luteus ATCC 4698 after 24 hrs by micro broth dilution method). Details: ATCC 4698, 24 h.
Type: functional
Compound `CCCCCn1cc(COCc2c(-c3ccccc3)nc3sc4cc(OCC)ccc4n23)nn1` has an MIC of 128 µg/mL (≈ 269 µM).
Work on `CCOc1ccc2c(c1)sc1nc(-c3ccccc3)c(COCc3cn(Cc4ccc(Cl)c(Cl)c4)nn3)n12` yielded an MIC of 2 µg/mL (≈ 3.54 µM).

The compounds below were run on Escherichia coli (assay: Antibacterial activity against Escherichia coli DH52 after 24 hrs by NCCLS micro broth dilution method). Details: DH52, 24 h.
Type: functional
For `CCCCCn1cc(COCc2c(-c3ccccc3)nc3sc4cc(OCC)ccc4n23)nn1`, the MIC was 128 µg/mL (≈ 269 µM).
`CCOc1ccc2c(c1)sc1nc(-c3ccccc3)c(COCc3cn(Cc4ccc(Cl)c(Cl)c4)nn3)n12` was tested, and the MIC was 32 µg/mL (≈ 56.7 µM).

What follows are compounds tested on Escherichia coli (assay: Antibacterial activity against Escherichia coli JM109 after 24 hrs by NCCLS micro broth dilution method). Details: JM109, 24 h.
Type: functional
Work on `CCCCCn1cc(COCc2c(-c3ccccc3)nc3sc4cc(OCC)ccc4n23)nn1` yielded an MIC of 128 µg/mL (≈ 269 µM).
Compound `CCOc1ccc2c(c1)sc1nc(-c3ccccc3)c(COCc3cn(Cc4ccc(Cl)c(Cl)c4)nn3)n12` has an MIC of 1 µg/mL (≈ 1.77 µM).

Each compound was assayed on Shigella dysenteriae (assay: Antibacterial activity against Shigella dysenteriae after 24 hrs by NCCLS micro broth dilution method). Details: not given.
Type: functional
Work on `CCCCCn1cc(COCc2c(-c3ccccc3)nc3sc4cc(OCC)ccc4n23)nn1` yielded an MIC of 128 µg/mL (≈ 269 µM).
For `CCOc1ccc2c(c1)sc1nc(-c3ccccc3)c(COCc3cn(Cc4ccc(Cl)c(Cl)c4)nn3)n12`, the MIC was 16 µg/mL (≈ 28.3 µM).

Each compound was assayed on Pseudomonas aeruginosa (assay: Antibacterial activity against Pseudomonas aeruginosa ATCC 27853 after 24 hrs by NCCLS micro broth dilution method). Details: ATCC 27853, 24 h.
Type: functional
`CCCCCn1cc(COCc2c(-c3ccccc3)nc3sc4cc(OCC)ccc4n23)nn1` was tested, and the MIC was 128 µg/mL (≈ 269 µM).
Work on `CCOc1ccc2c(c1)sc1nc(-c3ccccc3)c(COCc3cn(Cc4ccc(Cl)c(Cl)c4)nn3)n12` yielded an MIC of 4 µg/mL (≈ 7.09 µM).

What follows are compounds tested on Salmonella typhi (assay: Antibacterial activity against Salmonella typhi after 24 hrs by NCCLS micro broth dilution method). Details: Salmonella enterica.
Type: functional, Salmonella enterica subsp. enterica serovar Typhi
With `CCCCCn1cc(COCc2c(-c3ccccc3)nc3sc4cc(OCC)ccc4n23)nn1` the MIC was 128 µg/mL (≈ 269 µM).
For `CCOc1ccc2c(c1)sc1nc(-c3ccccc3)c(COCc3cn(Cc4ccc(Cl)c(Cl)c4)nn3)n12`, the MIC was 8 µg/mL (≈ 14.2 µM).

These compounds were tested on Bacillus (assay: Antibacterial activity against Bacillus proteus ATCC 13315 after 24 hrs by NCCLS micro broth dilution method). Details: ATCC 13315, 24 h.
Type: functional
In the case of `CCCCCn1cc(COCc2c(-c3ccccc3)nc3sc4cc(OCC)ccc4n23)nn1`, the MIC is reported as 64 µg/mL (≈ 135 µM).
`CCOc1ccc2c(c1)sc1nc(-c3ccccc3)c(COCc3cn(Cc4ccc(Cl)c(Cl)c4)nn3)n12` showed an MIC of 8 µg/mL (≈ 14.2 µM).

Each compound was assayed on Candida albicans (assay: Antifungal activity against Candida albicans ATCC 76615 after 24 hrs by NCCLS micro broth dilution method). Details: ATCC 76615, 24 h.
Type: functional
In the case of `CCCCCn1cc(COCc2c(-c3ccccc3)nc3sc4cc(OCC)ccc4n23)nn1`, the MIC is reported as 8 µg/mL (≈ 16.8 µM).
Work on `CCOc1ccc2c(c1)sc1nc(-c3ccccc3)c(COCc3cn(Cc4ccc(Cl)c(Cl)c4)nn3)n12` yielded an MIC of 8 µg/mL (≈ 14.2 µM).

What follows are compounds tested on Pichia norvegensis (assay: Antifungal activity against Candida mycoderma after 24 hrs by NCCLS micro broth dilution method). Details: not given.
Type: functional
With `CCCCCn1cc(COCc2c(-c3ccccc3)nc3sc4cc(OCC)ccc4n23)nn1` the MIC was 4 µg/mL (≈ 8.41 µM).
For `CCOc1ccc2c(c1)sc1nc(-c3ccccc3)c(COCc3cn(Cc4ccc(Cl)c(Cl)c4)nn3)n12`, the MIC was 4 µg/mL (≈ 7.09 µM).

What follows are compounds tested on Cyberlindnera jadinii (assay: Antifungal activity against Candida utilis after 24 hrs by NCCLS micro broth dilution method). Details: Williopsis jadinii.
Type: functional
Compound `CCCCCn1cc(COCc2c(-c3ccccc3)nc3sc4cc(OCC)ccc4n23)nn1` has an MIC of 1 µg/mL (≈ 2.1 µM).
With `CCOc1ccc2c(c1)sc1nc(-c3ccccc3)c(COCc3cn(Cc4ccc(Cl)c(Cl)c4)nn3)n12` the MIC was 2 µg/mL (≈ 3.54 µM).

These compounds were tested on Aspergillus flavus (assay: Antifungal activity against Aspergillus flavus after 24 hrs by NCCLS micro broth dilution method). Details: not given.
Type: functional
For `CCCCCn1cc(COCc2c(-c3ccccc3)nc3sc4cc(OCC)ccc4n23)nn1`, the MIC was 32 µg/mL (≈ 67.3 µM).
`CCOc1ccc2c(c1)sc1nc(-c3ccccc3)c(COCc3cn(Cc4ccc(Cl)c(Cl)c4)nn3)n12` gave an MIC of 64 µg/mL (≈ 113 µM).

These compounds were tested on Saccharomyces cerevisiae (assay: Antifungal activity against Saccharomyces cerevisiae after 24 hrs by NCCLS micro broth dilution method). Details: not given.
Type: functional
With `CCCCCn1cc(COCc2c(-c3ccccc3)nc3sc4cc(OCC)ccc4n23)nn1` the MIC was 8 µg/mL (≈ 16.8 µM).
`CCOc1ccc2c(c1)sc1nc(-c3ccccc3)c(COCc3cn(Cc4ccc(Cl)c(Cl)c4)nn3)n12` gave an MIC of 16 µg/mL (≈ 28.3 µM).

What follows are compounds tested on Saccharomyces cerevisiae (assay: Potency index, ratio of fluconazole MIC to compound MIC for antifungal activity against Saccharomyces cerevisiae). Details: not given.
Type: functional
`CCCCCn1cc(COCc2c(-c3ccccc3)nc3sc4cc(OCC)ccc4n23)nn1` gave a Ratio of 2.

Each compound was assayed on Calf thymus DNA (assay: Inhibition of neutral red binding to calf thymus DNA by UV-Visible absorption spectroscopy). Details: Bos taurus.
Type: nucleic-acid assay
`CCOc1ccc2c(c1)sc1nc(-c3ccccc3)c(COCc3cn(Cc4ccc(Cl)c(Cl)c4)nn3)n12` was tested, and the inhibition was “Dose-dependent effect”.

The compounds below were run against T1, Albumin (Homo sapiens, UniProt P02768) (assay: Binding affinity to HSA assessed as Stern-Volmer quenching constant at pH 7.3 at 286 K by fluorescence assay). Details: isolated protein.
T1 sequence (P02768 whole entry): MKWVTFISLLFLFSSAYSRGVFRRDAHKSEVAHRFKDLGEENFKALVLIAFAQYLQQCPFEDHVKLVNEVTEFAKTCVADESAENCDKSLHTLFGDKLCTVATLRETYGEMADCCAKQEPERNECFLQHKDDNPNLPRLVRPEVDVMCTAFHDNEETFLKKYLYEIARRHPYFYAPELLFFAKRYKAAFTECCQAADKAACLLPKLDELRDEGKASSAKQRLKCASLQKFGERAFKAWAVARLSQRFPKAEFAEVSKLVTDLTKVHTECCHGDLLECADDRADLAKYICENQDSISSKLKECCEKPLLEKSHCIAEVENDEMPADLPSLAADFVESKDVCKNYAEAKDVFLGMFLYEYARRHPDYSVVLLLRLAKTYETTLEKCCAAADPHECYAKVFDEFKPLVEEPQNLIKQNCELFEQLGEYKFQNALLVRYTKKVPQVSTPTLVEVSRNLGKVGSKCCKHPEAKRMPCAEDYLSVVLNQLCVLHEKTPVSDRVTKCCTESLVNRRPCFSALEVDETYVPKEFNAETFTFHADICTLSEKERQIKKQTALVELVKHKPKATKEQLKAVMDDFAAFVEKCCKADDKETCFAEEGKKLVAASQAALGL
Type: ADME
For `CCOc1ccc2c(c1)sc1nc(-c3ccccc3)c(COCc3cn(Cc4ccc(Cl)c(Cl)c4)nn3)n12`, the KSV was 4.04 ×10⁴ L/mol.

These compounds were tested against T1, Albumin (assay: Binding affinity to HSA assessed as Stern-Volmer quenching constant at pH 7.3 at 303 K by fluorescence assay). Details: isolated protein.
Type: ADME
`CCOc1ccc2c(c1)sc1nc(-c3ccccc3)c(COCc3cn(Cc4ccc(Cl)c(Cl)c4)nn3)n12` was tested, and the KSV was 3.54 ×10⁴ L/mol.

The compounds below were run against T1, Albumin (assay: Binding affinity to HSA assessed as Stern-Volmer quenching constant at pH 7.3 at 310 K by fluorescence assay). Details: isolated protein.
Type: ADME
`CCOc1ccc2c(c1)sc1nc(-c3ccccc3)c(COCc3cn(Cc4ccc(Cl)c(Cl)c4)nn3)n12` was tested, and the KSV was 3.42 ×10⁴ L/mol.

These compounds were tested against T1, Albumin (assay: Binding affinity to HSA assessed as biomolecular quenching rate constant at pH 7.3 at 286 K by fluorescence assay). Details: isolated protein.
Type: ADME
In the case of `CCOc1ccc2c(c1)sc1nc(-c3ccccc3)c(COCc3cn(Cc4ccc(Cl)c(Cl)c4)nn3)n12`, the Kq is reported as 6.36 ×10¹² L/mol/s.

Each compound was assayed against T1, Albumin (assay: Binding affinity to HSA assessed as biomolecular quenching rate constant at pH 7.3 at 303 K by fluorescence assay). Details: isolated protein.
Type: ADME
`CCOc1ccc2c(c1)sc1nc(-c3ccccc3)c(COCc3cn(Cc4ccc(Cl)c(Cl)c4)nn3)n12` was tested, and the Kq was 5.53 ×10¹² L/mol/s.

These compounds were tested against T1, Albumin (assay: Binding affinity to HSA assessed as biomolecular quenching rate constant at pH 7.3 at 310 K by fluorescence assay). Details: isolated protein.
Type: ADME
Work on `CCOc1ccc2c(c1)sc1nc(-c3ccccc3)c(COCc3cn(Cc4ccc(Cl)c(Cl)c4)nn3)n12` yielded a Kq of 5.34 ×10¹² L/mol/s.

What follows are compounds tested against T1, Albumin (assay: Binding affinity to HSA assessed as change in enthalpy at 286 K by Van't hoff plot analysis). Details: isolated protein.
Type: ADME
For `CCOc1ccc2c(c1)sc1nc(-c3ccccc3)c(COCc3cn(Cc4ccc(Cl)c(Cl)c4)nn3)n12`, the deltaH was -1.54 kcal/mol.

The compounds below were run against T1, Albumin (assay: Binding affinity to HSA assessed as change in free energy at 286 K by Van't hoff plot analysis). Details: isolated protein.
Type: ADME
Compound `CCOc1ccc2c(c1)sc1nc(-c3ccccc3)c(COCc3cn(Cc4ccc(Cl)c(Cl)c4)nn3)n12` has a deltaG of -5.9113 kcal/mol.

These compounds were tested against T1, Albumin (assay: Binding affinity to HSA assessed as change in free energy at 303 K by Van't hoff plot analysis). Details: isolated protein.
Type: ADME
`CCOc1ccc2c(c1)sc1nc(-c3ccccc3)c(COCc3cn(Cc4ccc(Cl)c(Cl)c4)nn3)n12` was tested, and the deltaG was -5.9183 kcal/mol.

The compounds below were run against T1, Albumin (assay: Binding affinity to HSA assessed as change in free energy at 310 K by Van't hoff plot analysis). Details: isolated protein.
Type: ADME
`CCOc1ccc2c(c1)sc1nc(-c3ccccc3)c(COCc3cn(Cc4ccc(Cl)c(Cl)c4)nn3)n12` showed a deltaG of -6.0194 kcal/mol.

Each compound was assayed against T1, Albumin (assay: Binding affinity to HSA assessed as change in entropy at 286 K by Van't hoff plot analysis). Details: isolated protein.
Type: ADME
With `CCOc1ccc2c(c1)sc1nc(-c3ccccc3)c(COCc3cn(Cc4ccc(Cl)c(Cl)c4)nn3)n12` the deltaS was 60.5 J/mol.K.
